Measurements taken from US20230266309A1, “PROTEIN MICROARRAY, USE AND DETECTION METHOD THEREOF” (NATIONAL CHENG KUNG UNIVERSITY, priority 2021, published 2023).

Target: T1, S proteins of wild-type SARS-CoV-2 virus and the SARS-CoV-2 D614G, B.1.1.7, B.1.351, P1, B.1.617, B.1.617.1, B.1.617.2, and B.1.617.3 variants (Homo sapiens, UniProt Q9BYF1)
T1 construct: purchased Sino Biological Inc. (Mainland China)
Type: binding
Conditions: FIG. 10; for ACE2 binding to the S protein: SARS-CoV-2 B.1.617.3 variant (excepted from the dose-dependent decrease); for ACE2 binding to the S proteins: wild-type and D614G, B.1.1.7, B.1.351, P1, B.1.617, B.1.617.1, B.1.617.2 variants

T1 sequence (Q9BYF1 18-740, stated change not applied): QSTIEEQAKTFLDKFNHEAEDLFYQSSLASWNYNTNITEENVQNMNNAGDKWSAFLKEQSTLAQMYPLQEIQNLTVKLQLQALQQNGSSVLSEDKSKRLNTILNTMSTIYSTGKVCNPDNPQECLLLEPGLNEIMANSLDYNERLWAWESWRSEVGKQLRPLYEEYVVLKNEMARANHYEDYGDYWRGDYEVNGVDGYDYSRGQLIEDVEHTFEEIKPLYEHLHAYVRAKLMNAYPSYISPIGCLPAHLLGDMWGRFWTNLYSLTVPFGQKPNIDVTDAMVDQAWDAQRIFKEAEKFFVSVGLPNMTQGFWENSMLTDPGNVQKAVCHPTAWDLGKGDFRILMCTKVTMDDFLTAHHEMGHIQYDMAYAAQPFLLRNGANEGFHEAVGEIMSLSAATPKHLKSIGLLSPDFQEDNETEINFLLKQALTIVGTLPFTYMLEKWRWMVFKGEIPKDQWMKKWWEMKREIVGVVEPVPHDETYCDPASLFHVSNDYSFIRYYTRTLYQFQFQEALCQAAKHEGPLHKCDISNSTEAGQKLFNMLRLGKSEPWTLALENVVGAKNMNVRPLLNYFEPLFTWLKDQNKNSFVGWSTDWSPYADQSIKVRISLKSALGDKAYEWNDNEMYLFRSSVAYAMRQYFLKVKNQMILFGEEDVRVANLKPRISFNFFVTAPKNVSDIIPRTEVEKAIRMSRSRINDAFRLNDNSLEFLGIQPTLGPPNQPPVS

Structure (SMILES)	ACE2 binding to the S protein	ACE2 binding to the S proteins
CCC[C@H](N[C@@H](C)C(=O)N1[C@H](C(=O)O)C[C@@H]2CCCC[C@@H]21)C(=O)OCC [Perindopril]	except for the SARS-CoV-2 B.1.617.3 variant	dose-dependently decrease
CCOC(=O)[C@H](CCc1ccccc1)N[C@@H](C)C(=O)N1[C@H](C(=O)O)C[C@@H]2CCC[C@@H]21 [Ramipril]	except for the SARS-CoV-2 B.1.617.3 variant	dose-dependently decrease
